For this test, the target named is T1, IRAK4 (Homo sapiens, UniProt Q9NWZ3).
T1 sequence (Q9NWZ3 1-460): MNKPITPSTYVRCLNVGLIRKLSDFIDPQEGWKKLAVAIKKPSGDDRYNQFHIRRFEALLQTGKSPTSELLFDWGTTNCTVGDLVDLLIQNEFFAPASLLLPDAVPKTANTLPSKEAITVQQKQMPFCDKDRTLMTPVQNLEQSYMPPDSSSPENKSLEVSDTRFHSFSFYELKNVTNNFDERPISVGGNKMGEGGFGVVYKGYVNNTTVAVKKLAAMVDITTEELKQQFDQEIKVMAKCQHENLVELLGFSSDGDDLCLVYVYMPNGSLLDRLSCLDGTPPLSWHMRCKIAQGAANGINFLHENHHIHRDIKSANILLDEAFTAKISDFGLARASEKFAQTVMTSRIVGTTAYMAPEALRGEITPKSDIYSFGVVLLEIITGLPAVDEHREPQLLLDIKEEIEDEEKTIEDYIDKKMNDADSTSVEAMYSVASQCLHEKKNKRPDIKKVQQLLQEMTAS
As to the kind of experiment: IRAK-4 activity inhibition assay (Caliper). Type of test: biochemical. Particulars: 37 μM ATP, 3.5 nM IRAK4.

IC50 data for eleven molecules are collected here from patent US20160193216A1 (Nimbus Iris, Inc., priority 2012, published 2016).

In general, IC50 refers to the concentration needed to halve the response being measured. Higher therefore signals lower potency.

As for `CN[C@H]1CC[C@H](Oc2ncnc3sc4c(c23)[C@@H](C[C@@H](O)C(N)=O)CC4)CC1` [Compound I-140, (2R)-2-hydroxy-3-[(3R)-12-[[4-(methylamino)cyclohexyl]oxy]-7-thia-9,11-diazatricyclo[6.4.0.0[2,6]]dodeca-1(8),2(6),9,11-tetraen-3-yl]propanamide], the IC50 was below 5 µM.
In turn, `O=C(O)[C@H]1CCc2sc3ncnc(O[C@H]4CC[C@H](N5CCOCC5)CC4)c3c2C1` [Compound I-234, (12S)-3-[[(1r,4r)-4-(morpholin-4-yl)cyclohexyl]oxy]-8-thia-4,6-diazatricyclo[7.4.0.0[2,7]]trideca-1(9),2(7),3,5-tetraene-12-carboxylic acid] gave an IC50 below 5 µM.
The same measure for `OC[C@H]1CCc2sc3ncnc(O[C@H]4CC[C@H](N5CCOCC5)CC4)c3c2C1` [Compound I-216, [(12S)-3-[[4-(morpholin-4-yl)cyclohexyl]oxy]-8-thia-4,6-diazatricyclo[7.4.0.0[2,7]]trideca-1(9),2(7),3,5-tetraen-12-yl]methanol]: below 5 µM; for `CCOCCC1CCc2sc3ncnc(O[C@H]4CC[C@H](N(C)C)CC4)c3c21` (some centres unmarked) [Compound I-31, 4-[[3-(2-ethoxyethyl)-7-thia-9,11-diazatricyclo[6.4.0.0[2,6]]dodeca-1(8),2(6),9,11-tetraen-12-yl]oxy]-N,N-dimethylcyclohexan-1-amine]: 5 to 20 µM; for `C#CCOC[C@@H]1CCc2sc3ncnc(O[C@H]4CC[C@H](N(C)C)CC4)c3c21` [Compound I-48, N,N-dimethyl-4-[[(3R)-3-[(prop-2-yn-1-yloxy)methyl]-7-thia-9,11-diazatricyclo[6.4.0.0[2,6]]dodeca-1(8),2(6),9,11-tetraen-12-yl]oxy]cyclohexan-1-amine]: below 5 µM.
The same measure for `CN(C)[C@H]1CC[C@H](Oc2ncnc3sc4c(c23)[C@H](CCO)CC4)CC1` [Compound I-33, 2-[(3S)-12-[[4-(dimethylamino)cyclohexyl]oxy]-7-thia-9,11-diazatricyclo[6.4.0.0[2,6]]dodeca-1(12),2(6),8,10-tetraen-3-yl]ethan-1-ol]: below 5 µM; for `NC(=O)C1CCc2sc3ncnc(N[C@H]4CC[C@H](N5CCOCC5)CC4)c3c2C1` (some centres unmarked) [Compound I-203, 3-[[4-(morpholin-4-yl)cyclohexyl]amino]-8-thia-4,6-diazatricyclo[7.4.0.0[2,7]]trideca-1(9),2,4,6-tetraene-12-carboxamide]: below 5 µM.
The same measure for `CN(C)[C@H]1CC[C@H](Oc2ncnc3sc4c(c23)[C@@H](CC(=O)NCC(N)=O)CC4)CC1` [Compound I-58, N-(2-amino-2-oxoethyl)-2-((R)-4-(((1r,4R)-4-(dimethylamino)cyclohexyl)oxy)-6,7-dihydro-5H-cyclopenta[4,5]thieno[2,3-d]pyrimidin-5-yl)acetamide]: below 5 µM; for `COCCN(C)[C@H]1CC[C@H](Oc2ncnc3sc4c(c23)[C@@H](CC(N)=O)CC4)CC1` [Compound I-130, 2-((R)-4-(((1r,4R)-4-((2-methoxyethyl)(methyl)amino)cyclohexyl)oxy)-6,7-dihydro-5H-cyclopenta[4,5]thieno[2,3-d]pyrimidin-5-yl)acetamide]: below 5 µM; for `NC(=O)[C@H]1CCc2sc3ncnc(O[C@H]4CC[C@H](N5CCC(F)(F)CC5)CC4)c3c2C1` [Compound I-236, (12S)-3-[[4-(4,4-difluoropiperidin-1-yl)cyclohexyl]oxy]-8-thia-4,6-diazatricyclo[7.4.0.0[2,7]]trideca-1(9),2(7),3,5-tetraene-12-carboxamide]: below 5 µM.
In turn, `CN(C)[C@H]1CC[C@H](Oc2ncnc3sc4c(c23)CC(CCO)OC4)CC1` (some centres unmarked) [Compound I-219, 2-(3-[[4-(dimethylamino)cyclohexyl]oxy]-1-oxa-8-thia-4,6-diazatricyclo[7.4.0.0[2,7]]trideca-1(9),2,4,6-tetraen-12-yl)ethan-1-ol] gave an IC50 below 5 µM.
